Data as given in a melting point compilation (Tetko et al.; mined from patent text by program, amines drawn as free bases though some values may be those of a salt).
Residues, ends and D or L forms follow the SMILES beside them. *: point of attachment. Propionyl = CCC(=O)*; NHPh = c1ccc(N*)cc1

SMILES	melting point [°C]
CN(Cc1cc(C(F)(F)F)cc(C(F)(F)F)c1)C(=O)c1c(-c2ccccc2C(F)(F)F)c2ccccc2c(=O)n1C	159 to 160
CCOC(=O)C(=O)Nc1ccc(OC)cc1[N+](=O)[O-]	151
O=C1Nc2ccc(F)nc2N2CCNCC12 (centres undefined)	305 to 308
O=CC1CC(n2ccc(=O)[nH]c2=O)OC1COC(c1ccccc1)(c1ccccc1)c1ccccc1 (centres undefined)	100
O=C(O)CCNC(=O)NCCCN1CCN(c2ccccc2)CC1	169 to 171
Cc1c(C(=O)O)cnn1-c1ccc(Cl)c(Cl)c1	188
O=C(CBr)c1ccc(O)c(CO)c1	117 to 119
Oc1cc(C(F)(F)F)ccc1-c1cc(Oc2ccc3cccnc3c2)ncn1	210 to 212
CN1C(=O)C(N)N=C(c2ccccc2)c2ccncc21 (centres undefined)	94 to 118
O=C(CCCCCc1ccc(Cl)cc1)Nc1ccc(C(=O)O)cc1	218 to 220
CCCc1nc2c(N)nc3cccnc3c2n1CC1(O)CCOCC1	209 to 210
O=c1ccn(-c2cc3[nH]c(=O)c(=O)[nH]c3cc2C(F)(F)F)cc1	410 to 420
CC(C)(C(=O)O)c1ccc(C(=O)CCCN2CCC(OC(c3ccccc3)c3ccccc3)CC2)cc1	93 to 95
CCOC(=O)C(Cc1ccccc1CCBr)(NC(C)=O)C(=O)OCC	86 to 86.5
ClCCCOc1ccc(Cl)cc1	35 to 36
CCOC(=S)c1sc(Cl)nc1C(F)(F)F	28 to 32
COc1ccc(C=O)cc1C	120
CC1(C)Oc2ccc(C#N)cc2C(n2ccccc2=O)C1O (centres undefined)	243
O=C(Nc1ccc(-n2nc(C(F)(F)F)cc2C(F)(F)F)cc1)c1cc(F)c(F)c(F)c1F	138 to 140
CC(C)(C)c1cc(C=C2SCN(CCN)C2=O)cc(C(C)(C)C)c1O	176 to 178
O=C1NCCN1N=Cc1ccccc1	201 to 206
O=C(O)Cn1c(=O)[nH][nH]c1=O	220 to 223
COc1ccc(-c2nc(Sc3ccccc3OC)[nH]c2-c2ccc(OC)cc2)cc1	161
CC(C)(C)OC(=O)NCc1ccc2c(c1)CNC2	114 to 115
OCCNc1cc(N2CCCC2)nc(N2CCCC2)n1	150 to 152

SMILES	melting point [°C]
CCC(=O)N[C@@H](C)C(=O)N[C@@H](C)C(=O)Nc1ccccc1 (Propionyl-Ala-Ala-NHPh)	281 to 284
Cc1cc(-c2nc3ccccc3c(=O)n2-c2ccc(Br)cc2)cc(C)c1OCCO	164 to 165
CC(C)(C)OC(=O)N1CCN(S(=O)(=O)c2ccc(Br)s2)CC1	127
CCCCNC(=O)Nc1ccccc1C(=O)OC	84 to 85
Oc1ccc(SSc2ccc(O)cc2)cc1	144 to 146
Oc1ncc(-c2cccc(C(F)(F)F)c2)cn1	283 to 285
CCOC(=O)C(Cc1cccc(OCC(F)(F)F)c1)C(=O)c1ccc(F)cc1 (centres undefined)	48 to 49
CCCc1nc2c(N)nc3cc(OCCOCCNC(=O)OC(C)(C)C)ccc3c2s1	111 to 113
OC(CCc1nc(CCl)no1)c1ccc(-c2ccccc2)cc1 (centres undefined)	48 to 49
Cc1c(C)c2c(c(C)c1N)C(c1ccccc1)CO2 (centres undefined)	94 to 95
CSc1nc(-c2cccnc2)c(-c2ccccc2)n1C	123 to 127
COCn1c(-c2nccs2)c(Cl)c2cccc(NS(=O)(=O)c3cccs3)c21	128 to 129
CC(=O)C(=Cc1ccc([N+](=O)[O-])cc1)CC(=O)OCCC#N	98 to 100
Cc1cc2[nH]cc(CSCC(=O)N3CC=C(c4ccccc4)CC3)c2cc1C	167 to 169
CCOc1c(OC)c(OC)cc(C(=O)O)c1-c1c(C(=O)O)cc(OC)c2c1OCO2	236 to 237
NC(=O)c1cc2c(Oc3ccc(C(=O)N4CCOCC4)cc3)cncc2s1	> 260
CC(=O)Nc1ccc(C(C)=O)c(C)n1	201 to 202
O=C1C=C(Oc2ccc(C3CCCC3)cc2)C(O)O1 (centres undefined)	101 to 103
CN1C(C(=O)OC2CCCCC2)=C(O)c2ccccc2S1(=O)=O	112
CCC1(C)CC(=O)C(C(=O)Nc2ccc(Cl)c(C(F)(F)F)c2)C(=O)C1 (centres undefined)	87 to 88
COc1cc(C=C(C#N)C(=O)Nc2cccc(Cl)c2)cc(F)c1O	235
NC(=NO)c1ccc(I)cc1	155 to 161
CCOC(=O)c1cn(C)c2nc3cc(Cl)c(F)cc3cc2c1=O	360 to 362
Cc1ncc2n1-c1ccc(Cl)cc1C(c1ccccc1F)N=C2 (centres undefined)	180 to 181
Cc1oc(-c2ccc(S(C)(=O)=O)cc2)c(Oc2ccc(F)cc2F)c(=O)c1Cl	210

SMILES	melting point [°C]
OC1C2CCN(CC2)C1CN1CCCCC1 (centres undefined)	130 to 131
O=C(COc1ccc(-c2ccccc2Cl)cn1)Nc1cscc1C(=O)O	218 to 223
O=C1Nc2cc(F)ccc2N2CCN(CCCCc3ccncc3)CC12 (centres undefined)	262 to 264
N#Cc1ncn2c(C(F)(F)F)cc(-c3cccc(C(F)(F)F)c3)nc12	202
O=C1CC2(C(=O)N1)C(=O)N(Cc1ccc(Br)cc1F)C(=O)c1ccccc12 (centres undefined)	112 to 114
CCNC(=O)N(Cc1ccc(Cl)cc1)C1CC2CCC1C2 (centres undefined)	132 to 133
COC(=O)C(Cc1ccccc1)Oc1ccc2cc(CN(C)C(=O)c3oc4ccccc4c3CCc3ccccc3)ccc2c1Br (centres undefined)	29 to 32
CC(O)(C=Cc1ccc(S(=O)(=O)N2CCCC2)cc1)C(F)(F)F (centres undefined)	119 to 121
COc1cc(C(=O)O)ccc1Cn1nc(OC)c2ccc(NC(=O)OC3CCCC3)cc21	199 to 200
CCOC(=O)c1cnn(-c2ccc(OC)cc2)c1Cl	100 to 101
CC(S)C(O)(Cn1cncn1)c1ccc(F)cc1F (centres undefined)	145 to 147
CC(NC(=O)[C@@H](N)C(C)C)c1cc2ccccc2s1 (some centres undefined)	70 to 71
FC(F)C(F)(F)Oc1cccc(Nc2nccc(-c3cncc4ccccc34)n2)c1	158 to 160
O=C(Cn1c(-c2ccc(Cl)cc2)nc2cccnc21)N(c1ccccc1)c1ccccc1	176 to 178
ON=C(c1cccc(F)c1)c1ccc(O)c(Cl)c1Cl	178 to 185
Cc1c(C)c2c(c(C)c1O)C(c1ccc(N3CCN(C)CC3)cc1)C(C)(C)O2 (centres undefined)	159 to 161
COc1cc(CNc2nc(NCCc3ccccn3)nc3ncccc23)cc(OC)c1	157 to 158
Cc1cccc(C)c1N1C(=S)N(C)C(O)C1O (centres undefined)	140 to 143
COCCOc1ccc(-c2cncc(C#N)c2Nc2ccc3[nH]ccc3c2C)cc1	208 to 210
COc1ccc(CCc2oc3ccc(Br)cc3c2CCl)cc1	70 to 75
CC(C)(C)C1=CC(=Nc2cccc(C(=O)O)c2)C=C(C(C)(C)C)C1=O	230 to 231
CCC(=O)Nc1cc(OC)cc2c1CC(C)O2 (centres undefined)	101
C[C@@H](Nc1nnc(-c2ccccc2)c2occc12)C1CCCCC1	126 to 130
C#CCNC(=O)c1cccc(-c2ccc3cnc(Nc4ccc(N5CCN(C)CC5)cc4)nn23)c1	185 to 187
